Experimental findings from patent US11731986B2 (Sanford Burnham Prebys Medical Discovery Institute, priority 2017, dated 2023) are described below.

The term IC50 denotes the concentration that gives 50% inhibition. A low value points to inhibition by little substance.

The experiment addresses T1, human LMPTP-A (Homo sapiens, UniProt P24666).
T1 sequence (P24666 1-158): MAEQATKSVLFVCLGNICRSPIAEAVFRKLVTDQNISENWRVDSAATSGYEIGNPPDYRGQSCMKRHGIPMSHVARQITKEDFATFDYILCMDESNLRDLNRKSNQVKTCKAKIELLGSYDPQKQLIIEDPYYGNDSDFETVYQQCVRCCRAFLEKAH
Kind of experiment: Enzyme Assay of Inhibition of LMPTP-A (phosphatase assay, OMFP or pNPP substrate). The format is biochemical. The following applies: Bis-Tris pH 6.0, 37° C. The method, then: Phosphatase assays were performed in buffer containing 50 mM Bis-Tris, pH 6.0, 1 mM DTT and 0.01% Triton X-100 at 37° C. For assays conducted with 3-O-methylfluorescein phosphate (OMFP) as substrate, fluorescence was monitored continuously at λex=485 and λem=525 nm. For assays conducted with para-nitrophenylphosphate (pNPP) as substrate, the reaction was stopped by addition of 2× reaction volume of 1 M NaOH, and absorbance was measured at 405 nm. IC50 values of compounds of Formula (I), (II), (III), or (IV) were determined from plots of inhibitor concentration versus percentage of enzyme activity. For inhibitor selectivity assays, each PTP was incubated with either 0.4 mM OMFP or 5 mM pNPP in the presence of 40 μM compound or DMSO. […] For the inhibitor reversibility assay, 50 nM human LMPTP-A was pre-incubated with 10 μM of compound of Formula (I), (II), (III), or (IV) or DMSO for 5 min. The enzyme was diluted 100× in phosphatase assay buffer containing 0.4 mM OMFP and fluorescence was measured at the indicated time points.

In turn, `NC1CCN(C(=O)CCc2ccc(-c3cc(NCCCN4CCCCC4)c4cnccc4n3)cc2)CC1` showed an IC50 of at most 1 µM.

`O=C(NCCc1ccncc1)c1cc2ccc(-c3cc(NCCCN4CCCCC4)c4cnccc4n3)cc2[nH]1`: the IC50 was at most 1 µM.

In turn, `CCNC1CCN(C(=O)CCc2ccc(-c3cc(NCCCN4CCCCC4)c4cnccc4n3)cc2)CC1` came in with an IC50 of at most 1 µM.

`CN1CCCC(CCNC(=O)C#Cc2ccc(-c3cc(NCCCN4CCCCC4)c4cnccc4n3)cc2)CC1` (stereo not shown) showed an IC50 of 1 to 20 µM.

With `CCN(CC)C(=O)CNC(=O)CCc1ccc(-c2cc(NCCCN3CCCCC3)c3cnccc3n2)cc1`, the IC50 was at most 1 µM.

In turn, `CN1CCC(N/C(=N\O)c2ccc(-c3cc(NCCCN4CCCCC4)c4cnccc4n3)cc2)CC1` yielded an IC50 of 1 to 20 µM.

Consider `O=C(c1nc2cc(-c3cc(NCCCN4CCCCC4)c4cnccc4n3)ccc2[nH]1)N1CCNCC1`, for which the IC50 was at most 1 µM.

For the molecule `CN1CCC(Nc2cc(-c3ccc4c(c3)cc(C(=O)NCCCN3CCCCC3)n4C)nc3ccncc23)CC1` [1-Methyl-5-(4-((1-methylpiperidin-4-yl)amino)-1,6-naphthyridin-2-yl)-N-(3-(piperidin-1-yl)propyl)-1H-indole-2-carboxamide], the IC50 lay in the range of 1 to 20 µM.

`CN1CCC(CNC(=O)c2cc3cc(-c4cc(NC5CCN(C)CC5)c5cnccc5n4)ccc3n2C)CC1` [1-Methyl-5-(4-((1-methylpiperidin-4-yl)amino)-1,6-naphthyridin-2-yl)-N-((1-methylpiperidin-4-yl)methyl)-1H-indole-2-carboxamide] had an IC50 of at most 1 µM.

On to `CC(CCN1CCCCC1)Nc1cc(-c2ccc3c(c2)cc(C(=O)NC2CCN(C)CC2)n3C)nc2ccncc12` (stereo not shown) [1-Methyl-N-(1-methylpiperidin-4-yl)-5-(4-(4-(piperidin-1-yl)butan-2-ylamino)-1,6-naphthyridin-2-yl)-1H-indole-2-carboxamide], for which the IC50 was in the range of 1 to 20 µM.

Take `CN1CCC(NC(=O)c2cc3cc(-c4cc(NC5CCN(C)CC5)c5cnccc5n4)ccc3n2C)CC1` [1-Methyl-N-(1-methylpiperidin-4-yl)-5-(4-((1-methylpiperidin-4-yl)amino)-1,6-naphthyridin-2-yl)-1H-indole-2-carboxamide]: the IC50 is at most 1 µM.

With `Cn1c(C(=O)NC2CCSCC2)cc2cc(-c3cc(NCCCN4CCCCC4)c4cnccc4n3)ccc21` [1-methyl-5-(4-(3-(piperidin-1-yl)propylamino)-1,6-naphthyridin-2-yl)-N-(tetrahydro-2H-thiopyran-4-yl)-1H-indole-2-carboxamide], the IC50 is at most 1 µM.

The molecule `Cn1c(C(=O)NC2CCNCC2)cc2cc(-c3cc(NCc4ccc(CN5CCCCC5)cc4)c4cnccc4n3)ccc21` [1-methyl-5-(4-(4-(piperidin-1-ylmethyl)benzylamino)-1,6-naphthyridin-2-yl)-N-(piperidin-4-yl)-1H-indole-2-carboxamide] registered an IC50 of at most 1 µM.

In turn, `Cn1c(C(N)=O)cc2nc(-c3cc(NCCCN4CCCCC4)c4cnccc4n3)ccc21` [1-methyl-5-(4-((3-(piperidin-1-yl)propyl)amino)-1,6-naphthyridin-2-yl)-1H-pyrrolo[3,2-b]pyridine-2-carboxamide] displayed an IC50 of 1 to 20 µM.

Turning to `Cn1c(C(=O)NCCc2ccncc2)cc2cc(-c3cc(NCCCN4CCCCC4)c4cnccc4n3)ccc21` [1-methyl-5-(4-((3-(piperidin-1-yl)propyl)amino)-1,6-naphthyridin-2-yl)-N-(2-(pyridin-4-yl)ethyl)-1H-indole-2-carboxamide], the IC50 is at most 1 µM.

For the molecule `Cn1c(C(=O)NC2CCNCC2)cc2cc(-c3cc(NCCCN4CCCCC4)c4cnccc4n3)ccc21` [1-methyl-5-(4-((3-(piperidin-1-yl)propyl)amino)-1,6-naphthyridin-2-yl)-N-(piperidin-4-yl)-1H-indole-2-carboxamide], the IC50 was at most 1 µM.

On to `Cn1c(C(=O)NC2CCOCC2)cc2cc(-c3cc(NCCCN4CCCCC4)c4cnccc4n3)ccc21` [1-methyl-5-(4-((3-(piperidin-1-yl)propyl)amino)-1,6-naphthyridin-2-yl)-N-(tetrahydro-2H-pyran-4-yl)-1H-indole-2-carboxamide], for which the IC50 is at most 1 µM.

In the case of `CN1CCC(NC(=O)c2cc3cc(-c4cc(N(C)CCCN5CCCCC5)c5cnccc5n4)ccc3n2C)CC1` [1-methyl-5-(4-(methyl(3-(piperidin-1-yl)propyl)amino)-1,6-naphthyridin-2-yl)-N-(1-methylpiperidin-4-yl)-1H-indole-2-carboxamide], the IC50 lay in the range of 1 to 20 µM.

In the case of `CNc1cc(-c2ccc3c(c2)cc(C(N)=O)n3C)nc2ccncc12` [1-methyl-5-(4-(methylamino)-1,6-naphthyridin-2-yl)-1H-indole-2-carboxamide], the IC50 lay within 1 to 20 µM.

With `CNc1cc(-c2ccc3c(c2)cc(C(=O)NC2CCN(C)CC2)n3C)nc2ccncc12` [1-methyl-5-(4-(methylamino)-1,6-naphthyridin-2-yl)-N-(1-methylpiperidin-4-yl)-1H-indole-2-carboxamide], the IC50 was 1 to 20 µM.

Turning to `CN1CCC(NC(=O)c2cc3cc(-c4cc(OCCCN5CCCCC5)c5cnccc5n4)ccc3n2C)CC1` [1-methyl-N-(1-methylpiperidin-4-yl)-5-(4-(3-(piperidin-1-yl)propoxy)-1,6-naphthyridin-2-yl)-1H-indole-2-carboxamide], the IC50 fell in the range of 1 to 20 µM.

As for `CN1CCC(NC(=O)c2cc3cc(-c4cc(NCc5ccc(CN6CCCCC6)cc5)c5cnccc5n4)ccc3n2C)CC1` [1-methyl-N-(1-methylpiperidin-4-yl)-5-(4-(4-(piperidin-1-ylmethyl)benzylamino)-1,6-naphthyridin-2-yl)-1H-indole-2-carboxamide], the IC50 is at most 1 µM.

In turn, `CN1CCC(NC(=O)c2cc3cc(-c4cc(NCCCN5CCCCC5)c5cnccc5n4)ccc3n2C)CC1` [1-methyl-N-(1-methylpiperidin-4-yl)-5-(4-((3-(piperidin-1-yl)propyl)amino)-1,6-naphthyridin-2-yl)-1H-indole-2-carboxamide] displayed a 50% inhibitory concentration (IC50) of at most 1 µM.

`CN1CCC(NC(=O)c2cc3cc(-c4cc(Nc5ccc(CN6CCCC6)cc5)c5cnccc5n4)ccc3n2C)CC1` [1-methyl-N-(1-methylpiperidin-4-yl)-5-(4-((4-(pyrrolidin-1-ylmethyl)phenyl)amino)-1,6-naphthyridin-2-yl)-1H-indole-2-carboxamide] yielded an IC50 of at most 1 µM.

The molecule `CCCNc1cc(-c2ccc3c(c2)cc(C(=O)NC2CCN(C)CC2)n3C)nc2ccncc12` [1-methyl-N-(1-methylpiperidin-4-yl)-5-(4-(propylamino)-1,6-naphthyridin-2-yl)-1H-indole-2-carboxamide] showed an IC50 of at most 1 µM.

For `CN1CCN(CCCNC(=O)c2cc3cc(-c4cc(NCCCN5CCCCC5)c5cnccc5n4)ccc3n2C)CC1` [1-methyl-N-(3-(4-methylpiperazin-1-yl)propyl)-5-(4-((3-(piperidin-1-yl)propyl)amino)-1,6-naphthyridin-2-yl)-1H-indole-2-carboxamide], the IC50 is at most 1 µM.

Take `CN1CCC(CNC(=O)c2cc3cc(-c4cc(NCc5ccc(CN6CCCCC6)cc5)c5cnccc5n4)ccc3n2C)CC1` [1-methyl-N-((1-methylpiperidin-4-yl)methyl)-5-(4-(4-(piperidin-1-ylmethyl)benzylamino)-1,6-naphthyridin-2-yl)-1H-indole-2-carboxamide]: the IC50 was at most 1 µM.

Molecule `O=C(COCc1ccc(-c2cc(NCCCN3CCCCC3)c3cnccc3n2)cc1)NCC1CCNCC1` [2-(4-(4-(3-(piperidin-1-yl)propylamino)-1,6-naphthyridin-2-yl)benzyloxy)-N-(piperidin-4-ylmethyl)acetamide] displayed an IC50 of at most 1 µM.

With `CCN1CCC(CNC(=O)CCOc2ccc(-c3cc(N(CC)CCCN4CCCCC4)c4cnccc4n3)cc2)CC1` [3-(4-(4-(ethyl(3-(piperidin-1-yl)propyl)amino)-1,6-naphthyridin-2-yl)phenoxy)-N-((1-ethylpiperidin-4-yl)methyl)propanamide], the IC50 was at least 20 µM.

The molecule `CCN(CC)C(=O)c1ccc(-c2cc(NCCCN3CCCCC3)c3cnccc3n2)c(C#N)c1` [3-cyano-N,N-diethyl-4-(4-((3-(piperidin-1-yl)propyl)amino)-1,6-naphthyridin-2-yl)benzamide] yielded an IC50 of 1 to 20 µM.

Molecule `CN1CCC(NC(=O)c2ccc(-c3cc(NCCCN4CCCCC4)c4cnccc4n3)c(C#N)c2)CC1` [3-cyano-N-(1-methylpiperidin-4-yl)-4-(4-((3-(piperidin-1-yl)propyl)amino)-1,6-naphthyridin-2-yl)benzamide] displayed an IC50 of 1 to 20 µM.

Turning to `CCN(CC)C(=O)c1ccc(-c2cc(Nc3ccc(CN(C)C)cc3)c3cnccc3n2)cc1` [4-(4-(4-((Dimethylamino)methyl)phenylamino)-1,6-naphthyridin-2-yl)-N,N-diethylbenzamide], the IC50 lay within 1 to 20 µM.

For `CCN(CC)C(=O)c1ccc(-c2cc(Nc3ccc(N(C)C)cc3)c3cnccc3n2)cc1` [4-(4-(4-(Dimethylamino)phenylamino)-1,6-naphthyridin-2-yl)-N,N-diethylbenzamide], the IC50 lay within 1 to 20 µM.

For the molecule `CN1CCC(Nc2cc(-c3ccc(C(=O)NCCCN4CCCCC4)cc3)nc3ccncc23)C1` (stereo not shown) [4-(4-((1-Methylpyrrolidin-3-yl)amino)-1,6-naphthyridin-2-yl)-N-(3-(piperidin-1-yl)propyl)benzamide], the IC50 lay within 1 to 20 µM.
